Series [1] in a line: Pharmacokinetic profile of Solifenacin salts in fasted male Wistar rats. In kind it is in vivo. The note with it: for absorption / rate of absorption: compared to the succinate salt.
Series [2] in a line: Intrinsic dissolution rate of various salts of Solifenacin. In kind it is physicochemical.
The nature of series [3]: Stability study on storage (40° C. ± 2° C./75% ± 5% RH). In kind it is physicochemical. Here is the method:
The complete x-ray powder spectrum, was recorded with a Rigaku D/Max 2200 VPC X-ray powder diffractometer model using copper radiation. The X-ray diffraction pattern was recorded by keeping the instrument parameters as below: • X-ray: Cu/40 kv/30 mA, Diverging slit: 1°, Scattering slit: 1°, Receiving slit: 0.15 mm, Monochromator RS: 0.8 mm, Counter: Scintillation counter,
Solifenacin base and its salts were analyzed for purity by analytical HPLC at λ^max 220 nm using column J'sphere-ODS, 150 mm×4.6 mm×4μ or its equivalent on AGILENT 1100 series under the following conditions, • Detector: UV absorption photometer Wave length: 220 nm Column temp.: 30° C. • Flow rate: 1.0 mL/min. Injection Vol.: 5 μL • Mobile Phase (gradient elution): 0.05 TFA buffer in water:Acetonitrile
Several of the Solifenacin salts prepared according to the present invention has chemical and polymorphic stability on storage.

The mark [4] stands for this setting: Table 3b, fasted male Wistar rats, dose 30 mg/kg, mean.
The mark [5] stands for this setting: Table 3b, fasted male Wistar rats, dose 30 mg/kg, mean, succinate salt.
Where [6] appears, read: Table 3a, fasted male Wistar rats, dose 30 mg/kg, mean.
Setting [7] is: fasted male Wistar rats, ratio to succinate.
[8] abbreviates: After 3 Month at 40° C. ± 2° C./75% ± 5% RH.
[9] abbreviates: Table 3b, fasted male Wistar rats, dose 30 mg/kg, mean, hydrochloride salt.

Where a name gives a salt, the structure may show the parent alone. Read-outs that look alike come from different tables or passages of the source.

For orientation: Cmax means the peak of the concentration-time curve. Usually Tmax stands for the time from dosing to the highest level. For `O=C(O[C@H]1CN2CCC1CC2)N1CCc2ccccc2[C@@H]1c1ccccc1.O=C1O[C@H]([C@@H](O)CO)C(O)=C1O` [Solifenacin Ascorbate], in series [1] (setting [4]), the “AUC (0-inf)” value turned out to be 96.99 ng·h/mL, the “AUC (0-t)” value came out at 85.66 ng·h/mL, the Cmax stood at 29.04 ng/mL and the time of peak concentration (Tmax) worked out at 1.30 h. Further, the “absorption / rate of absorption” value in series [1] (in words) is reported as “faster”. In addition, in series [1] (relative to succinate), the “better absorption than the succinate salt” value was found to be 20%.
For `O=C(O[C@H]1CN2CCC1CC2)N1CCc2ccccc2[C@@H]1c1ccccc1` [Solifenacin Succinate, (+)-(1S,3′R)-quinuclidin-3′-yl 1-phenyl-1,2,3,4-tetrahydro-isoquinoline-2-carboxylate succinate salt, reference compound], in series [1] (setting [5]), the “AUC (0-inf)” value was 76.69 ng·h/mL, the “AUC (0-t)” value is 60.09 ng·h/mL, the Cmax amounted to 23.72 ng/mL and the time to peak (Tmax) worked out at 2.67 h. Also, in series [1] (text summary of Table 3b, fasted male Wistar rats, succinate salt), the “Tmax (absorption, as stated in text)” value is 6.67 h. Further, the Intrinsic dissolution rate in series [2] (pH 1.2 HCl, succinate salt) is 10.666 mg/min · cm^2. Besides, the Intrinsic dissolution rate in series [2] (pH 4.5 Acetate Buffer, succinate salt) is reported as 9.845 mg/min · cm^2. In addition, the Intrinsic dissolution rate in series [2] (pH 6.8 Phosphate Buffer, succinate salt) was found to be 11.002 mg/min · cm^2.
Regarding `O=C(O[C@H]1CN2CCC1CC2)N1CCc2ccccc2[C@@H]1c1ccccc1` [Solifenacin Hydrobromide, Solifenacin hydrobromide], the Tmax in series [1] (Table 3b, fasted male Wistar rats, dose 30 mg/kg, mean, hydrobromide) worked out at 1.27 h. Further, in series [1] (male, Wistar, rat, plasma, 30 mg/kg, Table 3b, fasted male Wistar rats, dose 30 mg/kg, mean, read-out: AUC (0-inf)), the AUC (0-inf) was found to be 74 ng·h/mL. The AUC (0-t) in series [1] (male, Wistar, rat, plasma, 30 mg/kg, Table 3b, fasted male Wistar rats, dose 30 mg/kg, mean, read-out: AUC (0-t)) was found to be 59.9 ng·h/mL. Also, the Cmax in series [1] (male, Wistar, rat, plasma, 30 mg/kg, Table 3b, fasted male Wistar rats, dose 30 mg/kg, mean, read-out: Cmax) came to 14.1 ng/mL.
For the compound “(+)-(1S,3′R)-quinuclidin-3′-yl 1-phenyl-1,2,3,4-tetrahydro-isoquinoline-2-carboxylate oxalate salt [Solifenacin Oxalate]”, in series [1] (setting [6]), the “AUC (0-inf)” value was 345.79 ng·h/mL, the “AUC (0-t)” value amounted to 321.28 ng·h/mL, the peak concentration (Cmax) was found to be 252.38 ng/mL and the Kel amounted to 0.26 h⁻¹. For the same compound, in series [1] (setting [6]), the T1/2 worked out at 4.76 h and the time of peak concentration (Tmax) came to 0.37 h. In series [1] (setting [4]), the “AUC (0-inf)” value came out at 78.78 ng·h/mL, the “AUC (0-t)” value is 49.77 ng·h/mL, the Cmax amounted to 9.10 ng/mL and the Kel was determined as 0.18 h⁻¹. In series [1] (setting [4]), the T1/2 came out at 6.19 h and the time of peak concentration (Tmax) worked out at 1.62 h. Moreover, in series [1] (setting [7]), the “higher plasma concentration (Bio available, Cmax) compared to Solifenacin succinate salt” value is approximately 10 fold and the “higher plasma exposure compared to Solifenacin succinate salt” value stood at 5 times. In series [1] (in words), the “T1/2 value compared to the succinate salt” value was “higher” and the “absorption / rate of absorption” value is “rapid absorption”. Also, in series [2] (pH 1.2 HCl), the Intrinsic dissolution rate is 6.5822 mg/min · cm^2. The Intrinsic dissolution rate in series [2] (pH 4.5 Acetate Buffer) was 6.5084 mg/min · cm^2. In series [2] (pH 6.8 Phosphate Buffer), the Intrinsic dissolution rate worked out at 4.9096 mg/min · cm^2. Also, in series [3] (setting [8]), the Description result is on record as “Off white colored”, the “Polymorphism XRD” value is “No Change”, the “Purity (By HPLC)” value worked out at 99.36% and the “Water (by KFR)” value was 0.33%. In addition, in series [3] (Initial), the Description result is given as “Off white colored powder”, the “Polymorphism XRD” value is reported as “Crystalline pattern”, the “Purity (By HPLC)” value amounted to 99.49% and the “Water (by KFR)” value amounted to 0.18%.
With `O=C(O)c1cc(O)ccc1O.O=C(O[C@H]1CN2CCC1CC2)N1CCc2ccccc2[C@@H]1c1ccccc1` [Solifenacin Gentisate, (+)-(1S,3′R)-quinuclidin-3′-yl 1-phenyl-1,2,3,4-tetrahydro-isoquinoline-2-carboxylate gentisate salt], in series [1] (setting [6]), the “AUC (0-inf)” value worked out at 74.19 ng·h/mL, the “AUC (0-t)” value turned out to be 58.97 ng·h/mL, the peak concentration (Cmax) is given as 30.66 ng/mL and the Tmax was determined as 1.70 h. Moreover, in series [1] (setting [4]), the “AUC (0-inf)” value was found to be 74.19 ng·h/mL, the “AUC (0-t)” value stood at 58.97 ng·h/mL, the Cmax is 30.66 ng/mL and the time to peak (Tmax) came to 1.70 h. Besides, in series [1] (in words), the “peak plasma concentrations compared with Solifenacin succinate” value is reported as “comparable”. Further, the Intrinsic dissolution rate in series [2] (pH 1.2 HCl) was found to be 6.845 mg/min · cm^2. The Intrinsic dissolution rate in series [2] (pH 4.5 Acetate Buffer) is 0.2356 mg/min · cm^2. Moreover, in series [2] (pH 6.8 Phosphate Buffer), the Intrinsic dissolution rate is recorded as 0.4932 mg/min · cm^2. Besides, in series [3] (setting [8]), the Description result is “Off white colored”, the “Polymorphism XRD” value is given as “No Change”, the “Purity (By HPLC)” value came out at 99.46% and the “Water (by KFR)” value is given as 0.29%. Moreover, in series [3] (Initial), the Description entry is listed as “Off white colored powder”, the “Polymorphism XRD” value was “Crystalline pattern”, the “Purity (By HPLC)” value is reported as 99.63% and the “Water (by KFR)” value is 0.16%.
Take `O=C(O[C@H]1CN2CCC1CC2)N1CCc2ccccc2[C@@H]1c1ccccc1` [Solifenacin Hydrochloride, (+)-(1S,3′R)-quinuclidin-3′-yl 1-phenyl-1,2,3,4-tetrahydro-isoquinoline-2-carboxylate hydrochloride salt]: the “AUC (0-inf)” value in series [1] (setting [9]) was determined as 59.52 ng·h/mL; in series [1] (male, Wistar, rat, plasma, 30 mg/kg, Table 3a, fasted male Wistar rats, dose 30 mg/kg, mean, read-out: AUC (0-inf)), 158 ng·h/mL. Further, the “AUC (0-t)” value in series [1] (setting [9]) was determined as 50.54 ng·h/mL; in series [1] (male, Wistar, rat, plasma, 30 mg/kg, Table 3a, fasted male Wistar rats, dose 30 mg/kg, mean, read-out: AUC (0-t)), 147 ng·h/mL. Also, the peak concentration (Cmax) was 13.67 ng/mL in series [1] (setting [9]) and 94.4 ng/mL in series [1] (male, Wistar, rat, plasma, 30 mg/kg, Table 3a, fasted male Wistar rats, dose 30 mg/kg, mean, read-out: Cmax). For the same compound, the Tmax in series [1] (setting [9]) was 1.05 h; in series [1] (male, Wistar, rat, plasma, 30 mg/kg, Table 3a, fasted male Wistar rats, dose 30 mg/kg, mean, read-out: Tmax), 0.6 h. The Vd in series [1] (rat, plasma, Table 3a, fasted male Wistar rats, dose 30 mg/kg, mean, read-out: Vz) came out at 1530 L. Further, the Intrinsic dissolution rate worked out at 6.6836 mg/min · cm^2 in series [2] (pH 1.2 HCl, listed as HCl, hydrochloride salt); 21.08 mg/min · cm^2 in series [2] (pH 4.5 Acetate Buffer, listed as HCl, hydrochloride salt); 20.262 mg/min · cm^2 in series [2] (pH 6.8 Phosphate Buffer, listed as HCl, hydrochloride salt). Also, the results for the Description entry in series [3] (setting [8]) and in series [3] (Initial) were “Off white colored” and “Off white colored powder”, respectively. In addition, the “Polymorphism XRD” value is recorded as “No Change” in series [3] (setting [8]) and “Crystalline pattern” in series [3] (Initial). The “Purity (By HPLC)” value was found to be 99.6% in series [3] (setting [8]) and 99.54% in series [3] (Initial). Further, the “Water (by KFR)” value was 0.32% in series [3] (setting [8]) and 0.14% in series [3] (Initial).
For “(+)-(1S,3′R)-quinuclidin-3′-yl 1-phenyl-1,2,3,4-tetrahydro-isoquinoline-2-carboxylate besylate salt [Solifenacin Besylate]”, in series [1] (setting [4]), the “AUC (0-inf)” value was 49.27 ng·h/mL, the “AUC (0-t)” value is 45.54 ng·h/mL, the maximum concentration (Cmax) is 12.84 ng/mL and the Kel came to 0.36 h⁻¹. Further, in series [1] (setting [4]), the T1/2 came to 1.95 h and the Tmax was 1.73 h.
With Solifenacin phosphate, in series [1] (setting [4]), the “AUC (0-inf)” value amounted to 57.63 ng·h/mL, the “AUC (0-t)” value came to 50.58 ng·h/mL, the peak concentration (Cmax) was determined as 12.63 ng/mL and the Kel came out at 0.29 h⁻¹. In addition, in series [1] (setting [4]), the T1/2 was found to be 2.43 h and the Tmax is 1.00 h.

Values taken from patent publication US20100298371A1, “PROCESS FOR PREPARING CHEMICALLY AND CHIRALLY PURE SOLIFENACIN BASE AND ITS SALTS” (priority 2007, published 2010).
